biological target: T1, human 11β-HSD1 (Homo sapiens, UniProt P28845); assay: Enzymatic 11beta-HSD1 test (SPA-based detection); assay type: biochemical; details: human 11β-HSD1 microsome fraction, [1,2-3H]-cortisone, NADPH, 37° C. 1 hour
T1 construct: host or cells: microsome fraction
Method in brief: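 Scintillation proximity detection: anti-cortisol antibody on SPA-PVT beads captured tritiated cortisol. The stop mix also contained 0.01 mM SSR110887 and was equilibrated 1 h at room temperature before counting. Cortisol came from [1,2-3H]-cortisone ([…]), turned over by human 11β-HSD1 microsomal protein (0.2 µg) with 0.25 mM NADPH in HEPES buffer, 37 °C, 1 h.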

T1 sequence (P28845 whole entry): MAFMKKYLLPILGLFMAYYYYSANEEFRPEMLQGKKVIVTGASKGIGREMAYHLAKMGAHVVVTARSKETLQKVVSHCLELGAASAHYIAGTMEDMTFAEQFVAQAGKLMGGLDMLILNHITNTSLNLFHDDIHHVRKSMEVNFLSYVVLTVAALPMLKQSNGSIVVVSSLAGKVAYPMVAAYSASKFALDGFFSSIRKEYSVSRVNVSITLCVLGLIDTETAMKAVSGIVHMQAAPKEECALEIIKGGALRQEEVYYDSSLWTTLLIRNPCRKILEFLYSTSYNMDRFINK

Row | SMILES | IC50 [nM]
1 | C[C@H](NC1=NS(=O)(=O)C(c2ccc(-c3cnc(N4CCNCC4)nc3)cc2)C(C)(C)O1)c1ccccc1F (stereo partly drawn) [Example 166, {6,6-Dimethyl-4,4-dioxo-5-[4-(2-piperazin-1-yl-pyrimidin-5-yl)-phenyl]-5,6-dihydro-4H-4lambda6-[1,4,3]oxathiazin-2-yl}-[(S)-1-(2-fluorophenyl)-ethyl]-amine] | 4
2 | C[C@H](NC1=NS(=O)(=O)C(c2ccc(N3CCNCC3)cc2)C(C)(C)O1)c1ccccc1F (stereo partly drawn) [Example 167, [6,6-Dimethyl-4,4-dioxo-5-(4-piperazin-1-yl-phenyl)-5,6-dihydro-4H-4lambda6-[1,4,3]oxathiazin-2-yl]-[(S)-1-(2-fluorophenyl)-ethyl]-amine] | 122
3 | C[C@H](NC1=NS(=O)(=O)C(c2cccnc2)C(C)(C)O1)c1ccccc1F (stereo partly drawn) [Example 168, (6,6-Dimethyl-4,4-dioxo-5-pyridin-3-yl-5,6-dihydro-4H-4lambda6-[1,4,3]oxathiazin-2-yl)-[(S)-1-(2-fluorophenyl)-ethyl]-amine] | 21
4 | C[C@H](NC1=NS(=O)(=O)C(c2ccc(N3CCN(C)CC3)cc2)C(C)(C)O1)c1ccccc1F (stereo partly drawn) [Example 170, {6,6-Dimethyl-5-[4-(4-methyl-piperazin-1-yl)-phenyl]-4,4-dioxo-5,6-dihydro-4H-4lambda6-[1,4,3]oxathiazin-2-yl}-[(S)-1-(2-fluorophenyl)-ethyl]-amine] | 246
5 | C[C@H](NC1=NS(=O)(=O)C(c2ccc(C3CCN(C(C)(C)C)CC3)cc2)C(C)(C)O1)c1ccccc1F (stereo partly drawn) [Example 171, {5-[4-(1-tert-Butyl-piperidin-4-yl)-phenyl]-6,6-dimethyl-4,4-dioxo-5,6-dihydro-4H-4lambda6-[1,4,3]oxathiazin-2-yl}-[(S)-1-(2-fluorophenyl)-ethyl]-amine] | 108
6 | C[C@H](NC1=NS(=O)(=O)C(c2ccc(C3CCN(C4CC4)CC3)cc2)C(C)(C)O1)c1ccccc1F (stereo partly drawn) [Example 172, {5-[4-(1-Cyclopropyl-piperidin-4-yl)-phenyl]-6,6-dimethyl-4,4-dioxo-5,6-dihydro-4H-4lambda6-[1,4,3]oxathiazin-2-yl}-[(S)-1-(2-fluorophenyl)-ethyl]-amine] | 55
7 | C[C@H](NC1=NS(=O)(=O)C(c2ccc(-c3cccc(C(N)=O)c3)nc2)C(C)(C)O1)c1ccccc1F (stereo partly drawn) [Example 176, 3-(5-{2-[(S)-1-(2-fluor-phenyl)-ethylamino]-6,6-odimethyl-4,4-dioxo-5,6-dihydro-4H-4lambda6-[1,4,3]oxathiazin-5-yl}-pyridin-2-yl)-benzamide] | 6
8 | C[C@H](NC1=NS(=O)(=O)C(c2cccc(C3CCN(C)CC3)c2)C(C)(C)O1)c1ccccc1F (stereo partly drawn) [Example 179, {6,6-Dimethyl-5-[3-(1-methyl-piperidin-4-yl)-phenyl]-4,4-dioxo-5,6-dihydro-4H-4lambda6-[1,4,3]oxathiazin-2-yl}-[(S)-1-(2-fluorophenyl)-ethyl]-amine] | 34
9 | C[C@H](NC1=NS(=O)(=O)C(c2ccc(-c3cccc(C(N)=O)c3)nc2)C(C)(C)O1)c1ccccc1F (stereo partly drawn) [Example 180, 3-(5-{2-[(S)-1-(2-fluorophenyl)-ethylamino]-6,6-dimethyl-4,4-dioxo-5,6-dihydro-4H-41ambda6-[1,4,3]oxathiazin-5-yl}-pyridin-2-yl)-benzamide] | 10
10 | C[C@H](NC1=NS(=O)(=O)C(c2ccc(-c3cccc(C(N)=O)c3)nc2)C(C)(C)O1)c1ccccc1F (stereo partly drawn) [Example 181, 3-(5-{2-[(S)-1-(2-fluorophenyl)-ethylamino]-6,6-dimethyl-4,4-dioxo-5,6-dihydro-4H-4lambda6-[1,4,3]oxathiazin-5-yl}-pyridin-2-yl)-benzamide] | 7
11 | C[C@H](NC1=NS(=O)(=O)C(c2cccc(C(=O)N3CCOCC3)c2)C(C)(C)O1)c1ccccc1F (stereo partly drawn) [Example 192, (3-{2-[(S)-1-(2-fluorophenyl)-ethylamino]-6,6-dimethyl-4,4-dioxo-5,6-dihydro-4H-4lambda6-[1,4,3]oxathiazin-5-yl}-phenyl)-morpholin-4-yl-methanone] | 252
12 | C[C@H](NC1=NS(=O)(=O)C(c2cccc(C(=O)N3CCCN(C)CC3)c2)C(C)(C)O1)c1ccccc1F (stereo partly drawn) [Example 193, (3-{2-[(S)-1-(2-fluorophenyl)-ethylamino]-6,6-dimethyl-4,4-dioxo-5,6-dihydro-4H-4lambda6-[1,4,3]oxathiazin-5-yl}-phenyl)-(4-methyl-[1,4]diazepan-1-yl)-methanone] | 476

Further lines, results first:

Row | IC50 [nM] | SMILES
13 | 2 | CC1(C)OC(N[C@@H](CCO)c2ccccc2F)=NS(=O)(=O)C1c1ccc(-c2cnc(N3CCNCC3)nc2)cc1 (stereo partly drawn) [Example 169, (S)-3-{6,6-Dimethyl-4,4-dioxo-5-[4-(2-piperazin-1-yl-pyrimidin-5-yl)-phenyl]-5,6-dihydro-4H-4lambda6-[1,4,3]oxathiazin-2-ylamino}-3-(2-fluoro-phenyl)-propan-1-ol]
14 | 137 | C[C@H](NC1=NS(=O)(=O)C(c2ccc(-c3ccccc3CN(C)C)cc2)C(C)(C)O1)c1ccccc1F (stereo partly drawn) [Example 173, [5-(2′-Dimethylaminomethyl-biphenyl-4-yl)-6,6-dimethyl-4,4-dioxo-5,6-dihydro-4H-4lambda6-[1,4,3]oxathiazin-2-yl]-[(S)-1-(2-fluorophenyl)-ethyl]-amin]
15 | 18 | C[C@H](NC1=NS(=O)(=O)[C@@H](c2ccc(-c3cccc(C(N)=O)c3)cc2)C(C)(C)O1)c1ccccc1F [Example 174, 4′-{(S)-2-[(S)-1-(2-fluorophenyl)-ethylamino]-6,6-dimethyl-4,4-dioxo-5,6-dihydro-4H-4lambda6-[1,4,3]oxathiazin-5-yl}-biphenyl-3-carboxamide]
16 | 20 | C[C@H](NC1=NS(=O)(=O)[C@H](c2ccc(-c3cccc(C(N)=O)c3)cc2)C(C)(C)O1)c1ccccc1F [Example 175, 4′-{(R)-2-[(S)-1-(2-fluorophenyl)-ethylamino]-6,6-dimethyl-4,4-dioxo-5,6-dihydro-4H-4lambda6-[1,4,3]oxathiazin-5-yl}-biphenyl-3-carboxamide]
17 | 17 | C[C@H](NC1=NS(=O)(=O)[C@@H](c2ccc(-c3cncc(C(N)=O)c3)cc2)C(C)(C)O1)c1ccccc1F [Example 177, 5-(4-{(S)-2-[(S)-1-(2-fluorophenyl)-ethylamino]-6,6-dimethyl-4,4-dioxo-5,6-dihydro-4H-4lambda6-[1,4,3]oxathiazin-5-yl}-phenyl)-nicotinamide]
18 | 3 | C[C@H](NC1=NS(=O)(=O)[C@H](c2ccc(-c3cncc(C(N)=O)c3)cc2)C(C)(C)O1)c1ccccc1F [Example 178, 5-(4-{(R)-2-[(S)-1-(2-fluorophenyl)-ethylamino]-6,6-dimethyl-4,4-dioxo-5,6-dihydro-4H-4lambda6-[1,4,3]oxathiazin-5-yl}-phenyl)-nicotinamide]
19 | 3 | CC1(C)OC(N[C@@H](CCO)c2ccccc2F)=NS(=O)(=O)[C@H]1c1ccc(-c2ccnc(C#N)c2)cc1 [Example 184, 4-(4-{(S)-2-[(S)-1-(2-fluorophenyl)-3-hydroxy-propylamino]-6,6-dimethyl-4,4-dioxo-5,6-dihydro-4H-4lambda6-[1,4,3]oxathiazin-5-yl}-phenyl)-pyridine-2-carbonitrile]
20 | 4 | CC1(C)OC(N[C@@H](CCO)c2ccccc2F)=NS(=O)(=O)[C@@H]1c1ccc(-c2ccnc(C#N)c2)cc1 [Example 185, 4-(4-{(R)-2-[(S)-1-(2-fluorophenyl)-3-hydroxy-propylamino]-6,6-dimethyl-4,4-dioxo-5,6-dihydro-4H-4lambda6-[1,4,3]oxathiazin-5-yl}-phenyl)-pyridine-2-carbonitrile]
21 | 11 | C[C@H](NC1=NS(=O)(=O)[C@@H](c2ccc(-c3ccnc(C#N)c3)cc2)C(C)(C)O1)c1ccccc1F [Example 186, 4-(4-{(S)-2-[(S)-1-(2-fluorophenyl)-ethylamino]-6,6-dimethyl-4,4-dioxo-5,6-dihydro-4H-4lambda6-[1,4,3]oxathiazin-5-yl}-phenyl)-pyridine-2-carbonitrile]
22 | 5 | C[C@H](NC1=NS(=O)(=O)[C@H](c2ccc(-c3ccnc(C#N)c3)cc2)C(C)(C)O1)c1ccccc1F [Example 187, 4-(4-{(R)-2-[(S)-1-(2-fluorophenyl)-ethylamino]-6,6-dimethyl-4,4-dioxo-5,6-dihydro-4H-4lambda6-[1,4,3]oxathiazin-5-yl}-phenyl)-pyridine-2-carbonitrile]
23 | 7 | CC1(C)OC(N[C@@H](CCO)c2ccccc2F)=NS(=O)(=O)[C@H]1c1ccc(-c2ccnc(C(N)=O)c2)cc1 [Example 188, 4-(4-{(S)-2-[(S)-1-(2-fluorophenyl)-3-hydroxy-propylamino]-6,6-dimethyl-4,4-dioxo-5,6-dihydro-4H-4lambda6-[1,4,3]oxathiazin-5-yl}-phenyl)-pyridine-2-carboxamide]
24 | 5 | CC1(C)OC(N[C@@H](CCO)c2ccccc2F)=NS(=O)(=O)[C@@H]1c1ccc(-c2ccnc(C(N)=O)c2)cc1 [Example 189, 4-(4-{(R)-2-[(S)-1-(2-fluorophenyl)-3-hydroxy-propylamino]-6,6-dimethyl-4,4-dioxo-5,6-dihydro-4H-4lambda6-[1,4,3]oxathiazin-5-yl}-phenyl)-pyridine-2-carboxamide]
25 | 331 | C[C@H](NC1=NS(=O)(=O)C(c2ccc(-c3ccnc(C#N)c3)nc2)C(C)(C)O1)c1ccccc1F (stereo partly drawn) [Example 190, 5-{2-[(S)-1-(2-fluorophenyl)-ethylamino]-6,6-dimethyl-4,4-dioxo-5,6-dihydro-4H-4lambda6-[1,4,3]oxathiazin-5-yl}-[2,4′]bipyridinyl-2′-carbonitril]
26 | 460 | C[C@H](NC1=NS(=O)(=O)C(c2ccc(-c3ccnc(C#N)c3)nc2)C(C)(C)O1)c1ccccc1F (stereo partly drawn) [Example 191, 5-{2-[(S)-1-(2-fluorophenyl)-ethylamino]-6,6-dimethyl-4,4-dioxo-5,6-dihydro-4H-4lambda6-[1,4,3]oxathiazin-5-yl}-[2,4′]bipyridinyl-2′-carbonitril]

— patent publication US8895547B2, “Substituted phenyl-oxathiazine derivatives, method for producing them, drugs containing said compounds and the use thereof” (Sanofi, priority 2011, dated 2014)
